Test results reported in US9073879B2, “Oxazole derivatives useful as modulators of FAAH” (MERCK SHARP & DOHME CORP., priority 2010, dated 2015).

How the values were obtained:
[1] = target: T1, human FAAH (Homo sapiens, UniProt O00519); experiment: FAAH whole cell assay (human Whole cell, FAAH_CHO, AAMCA substrate); assay type: cell-based; settings: CHO cells expressing human FAAH, whole cell format; read-out: human cell_IC50
T1 construct: The full length FAAH was subcloned into the mammalian expression vector, pcDEF.neo, using XbaI and EcoRI restriction sites; expressed in transfected cells
T1 sequence (O00519 1-579): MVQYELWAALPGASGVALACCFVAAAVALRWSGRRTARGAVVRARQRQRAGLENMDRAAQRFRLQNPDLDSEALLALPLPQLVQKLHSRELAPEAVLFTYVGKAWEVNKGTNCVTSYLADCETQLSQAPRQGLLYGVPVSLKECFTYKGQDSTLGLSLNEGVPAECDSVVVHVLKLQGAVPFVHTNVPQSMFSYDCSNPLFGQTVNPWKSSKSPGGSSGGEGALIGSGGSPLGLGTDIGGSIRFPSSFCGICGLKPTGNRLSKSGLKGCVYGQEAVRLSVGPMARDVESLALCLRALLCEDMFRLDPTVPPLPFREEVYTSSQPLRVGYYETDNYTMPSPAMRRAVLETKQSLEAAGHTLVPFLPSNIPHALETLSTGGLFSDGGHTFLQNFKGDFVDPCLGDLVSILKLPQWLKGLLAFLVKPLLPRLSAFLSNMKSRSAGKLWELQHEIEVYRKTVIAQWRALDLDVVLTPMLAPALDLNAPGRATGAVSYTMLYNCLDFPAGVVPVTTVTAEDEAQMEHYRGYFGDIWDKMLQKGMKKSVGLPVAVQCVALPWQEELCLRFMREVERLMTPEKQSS
Excerpt: (§1) To assist in assay development stable cell lines for human, murine and rat full length FAAH were developed. Human FAAH cDNA (Accession No: NM_001441.1) was purchased from Origene (Rockville, Md.). The full length FAAH was subcloned into the mammalian expression vector, pcDEF.neo, using XbaI and EcoRI restriction sites and used for stable cell line generation.
Murine (accession number NM_010173) and Rat FAAH (accession number NM_024132) was amplified by reverse transcriptase polymerase chain reaction (RT-PCR) from brain cDNA (BD Biosciences, San Jose, Calif.) using primers 1 and 2 or primers 1 and 3 respectively (see Table). The resulting PCR product was ligated into pCR4 TOPO and DNA sequence confirmed. The full length murine FAAH was subcloned into the mammalian expression vector, pcDEFneo using either EcoRI (murine) or KpnI and EcoRI (rat) restriction sites. Chinese hamster ovary cells (CHO) were transfected following manufacturers protocol (AMAXA). Forty eight hours post transfection, cells were trypsinized and transferred to 96 well plates in Iscove's DMEM media supplemented with 2 mM Glutamine, 10% fetal calf serum, 1 mg/ml geneticin and HT Supplement (0.1 mM sodium hypoxanthine, 0.016 mM thymidine) in order to isolate single clones. Following selection in geneticin, individual clones were selected and FAAH activity was assessed using a whole cell fluorescent anandamide assay, modified from Ramarao et al (2005). Following removal of tissue culture media cells were dislodged following addition of Cellstripper (Mediatech, Inc. Manassas, Va.) and transferred to 96 well black clear bottom assay plate, centrifuged at 1,000 rpm for 3 mins and media removed and replaced with assay buffer (50 mM Tris pH8.0, 1 mM EDTA, 0.1% fatty acid free BSA). The reaction was initiated by addition of fluorescent substrate, AMC Arachidonoyl Amide (Cayman Chemical, Ann Arbor, Mich.) to 1 μM and reaction allowed to proceed for 2 hours at room temperature. Release of fluorescence was monitored in a CytoFluor Multiplate Reader. Cells expressing the highest amount of FAAH activity were selected for study with FAAH inhibitors.
(§2) Assays are performed on either cell lysate or microsome fractions prepared as described or in whole cell format employing either the fluorescent substrate AAMCA (Cayman chemical, Ann Arbor, Mich.) or ^3H-anandamide ([ETHANOLAMINE-1-3H] American Radiolabeled Chemicals; 1 mCi/ml). The cell lysate or microsome assay is performed in black PerkinElmer OptiPlates-384F by adding FAAH_CHO (whole cell (shown as human Whole cell or Human WC), cell lysate (shown as human lysate of human LY) or microsome) in assay buffer (50 mM Phosphate, pH 8.0, 1 mM EDTA, 200 mM KCl, 0.2% glycerol, 0.1% fatty acid free BSA) to each well, followed by either DMSO or compound and allowed to incubate at 22-25° C. for fifteen minutes. AAMCA substrate was used to achieve a final concentration of 1 μM and reaction allowed to proceed at room temperature for 1-3 hours. Fluorescent release as a measure of FAAH activity was monitored by reading the plate in an Envision plate Reader (Ex: 360/40 nM; Em: 460/40 nM). Whole cell assay is conducted with cells harvested after rinsing tissue culture flasks three times with Ca^++Mg^++ free PBS, incubating for 10 min in Enzyme free dissociation media and centrifuging for 5 minutes at 1,000 rpm in table top centrifuge. Cells are resuspended in assay buffer at desired cell number in (4×10^4 cells/assay in 96-well format; 1×10^4 cells/assay in 384-well format) and assayed as described.

[2] = target: T1, human FAAH; experiment: FAAH cell lysate assay (human lysate, FAAH_CHO, AAMCA substrate); assay type: biochemical; settings: lysate of CHO cells expressing human FAAH; read-out: human lysate_IC50
Excerpt: as §1
CHO cells expressing FAAH were used to prepare either crude cell lysate or microsome fractions. To harvest cells, tissue culture media was decanted, the monolayer washed three times with Ca^++Mg^++ free PBS and cells recovered after 15 mm in enzyme free dissociation media (Millipore Corp, Billerica, Mass.). Cells were collected by centrifuging at 2000 rpm for 15 min. and the cell pellet re-suspended with 50 mM HEPES (pH 7.4) containing 1 mM EDTA and the protease inhibitors aprotinin (1 mg/ml) and leupeptin (100 μM). The suspension was sonicated at 4° C. and the cell lysate recovered after centrifuging at 12,000×g (14,600 rpm, SS34 rotor) for 20 min at 4° C. to form a crude pellet of cell debris, nuclei, peroxisomes, lysosomes, and mitochondria; the supernatant or cell lysate was used for FAAH enzyme assay. In some cases, microsomes fractions enriched in FAAH were prepared by centrifuging the cell lysate further at 27,000 rpm (100,000×g) in SW28 rotor for 50 minutes at 4° C. The pellet containing FAAH-enriched microsomes was re-suspend in 50 mM HEPES, (pH 7.4) 1 mM EDTA, and any remaining DNA sheared by passage of material through a 23 gauge needle and aliquots of enzyme were store at −80° C. prior to use.
(American Radiolabeled Chemicals; 1 mCi/ml) with FAAH (Life Sciences (1995), 56, 1999-2005 and Journal of Pharmacology and Experimented Therapeutics (1997), 283, 729-734), Analytical. Biochemistry (2003), 318:270-5. In addition, routine assays were performed monitoring hydrolysis of araehidonyl-7-amino-4-methylcoumarin amide (AAMCA) by following increase in fluorescence upon release of 7-amino 4-methyl coumarin (λEX=355 nm, (λEM=460 nm). Analytical. Biochemistry (2005). 343:143-51
as §2

Row | IC50 [1] | IC50 [2] | Structure (SMILES)
1 | 39 nM | 8 nM | COC(=O)c1ccc(OC(C)c2nc(-c3ccc(F)cc3)oc2Sc2ccc(Cl)cn2)cc1 (centres unmarked) [Example B7.1, methyl 4-(1-{5-[(5-chloropyridin-2-yl)sulfanyl]-2-(4-fluorophenyl)-1,3-oxazol-4-yl}ethoxy)benzoate]
2 | 80 nM | 21 nM | CNC(=O)c1ccc(OC(C)c2nc(-c3ccc(F)cc3)oc2Sc2ccc(Cl)cn2)cc1 (centres unmarked) [Example B7.2, 4-(1-{5-[(5-chloropyridin-2-yl)sulfanyl]-2-(4-fluorophenyl)-1,3-oxazol-4-yl}ethoxy)-N-methylbenzamide]
3 | 1310 nM | 187 nM | COC(=O)c1ccc(OCc2nc(C3CC3)oc2Sc2ccc(Cl)cn2)cc1 [Example D4.1, methyl 4-({5-[(5-chloropyridin-2-yl)sulfanyl]-2-cyclopropyl-1,3-oxazol-4-yl}methoxy)benzoate]
4 | 979 nM | 317 nM | Clc1ccc(Sc2oc(C3CC3)nc2COc2ccc3[nH]ncc3c2)nc1 [Example D4.2, 5-({5-[(5-chloropyridin-2-yl)sulfanyl]-2-cyclopropyl-1,3-oxazol-4-yl}methoxy)-1H-indazole]
